{"source": "patent US20240350522A1", "about": "“HYGROMYCIN A FOR TREATMENT OF DISEASES AND INFECTIONS” (FLIGHTPATH BIOSCIENCES, INC., priority 2021, published 2024)", "key": {"[1]": {"tested_on": "F. nucleatum nucleatum", "test": "Kirby-Bauer diffusion assay", "assay_type": "cell-based", "settings": "Fusobacterium nucleatum, strain 25586; Hyg A 40 μg per disc; mean (SEM); read-out: size of zone inhibition (mm)", "method": "(§1) Three representatives of 6 subspecies of Fusobacterium nucleatum (F. nucleatum) for a total of 18 strains were tested in the experiment. The sub species and strains are described in Table 2.\n(§2) All strains were verified by 16S V3/V6 sequence analysis prior to use. The methods described herein were performed in an anaerobic chamber at 37° C. All media and plates were degassed prior to use.\n(§3) Hygromycin A (Hyg A) discs were prepared by solubilizing Hyg A in distilled water and sterile filtered. Clindamycin was used as a positive control. Defined amounts of hygromycin A (40, 20, 10 or 5 micrograms), clindamycin (2 micrograms) or sterile distilled water were absorbed onto Kirby-Bauer discs in a biosafety cabinet.\n(§4) An overnight culture was grown in Wilkins-Chalgren (WC) broth and back-diluted 1:10 in fresh broth. When an OD 600 reading reached 0.5, 300 μL of the log phase culture was plated onto WC agar plates. The plates were sectioned into quadrants and a Kirby-Bauer (KB) disc impregnated with a defined amount of hygromycin A was placed in each quadrant. Plates were prepared thus in triplicate and the four amounts of hygromycin A were 40, 20 10 and 5 micrograms. The same volume of culture was spread on fourth plate sectioned into six sections for three positive and three negative controls. KB discs with water served as negative controls and KB discs impregnated with 2 micrograms of clindamycin served as positive controls. […] Table 3, Table 4, Table 5, Table 6, Table 7, Table 8 show the mean size of zone inhibitions for each of the subspecies tested using increasing concentrations of hygromycin A where the standard error of mean is represented in parenthesis.\n(§5) The amount of hygromycin A was plotted against the size of the zone of inhibition for each strain tested."}, "[2]": {"tested_on": "F. nucleatum animalis", "test": "Kirby-Bauer diffusion assay", "assay_type": "cell-based, Fusobacterium nucleatum", "settings": "for zone of inhibition at 5 µg/disc / zone of inhibition at 10 µg/disc / zone of inhibition at 20 µg/disc / zone of inhibition at 40 µg/disc: Fusobacterium nucleatum, mean (SEM), read-out: size of zone inhibition (mm); for zone of inhibition at 5 µg/disc: Hyg A 5 μg per disc; for zone of inhibition at 10 µg/disc: Hyg A 10 μg per disc; for zone of inhibition at 20 µg/disc: Hyg A 20 μg per disc; for zone of inhibition at 40 µg/disc: Hyg A 40 μg per disc", "method": "as §1, §2, §3, §4, §5"}, "[3]": {"tested_on": "F. nucleatum vincentii", "test": "Kirby-Bauer diffusion assay", "assay_type": "cell-based, Fusobacterium nucleatum", "settings": "for zone of inhibition at 5 µg/disc / zone of inhibition at 10 µg/disc / zone of inhibition at 20 µg/disc / zone of inhibition at 40 µg/disc: Fusobacterium nucleatum, mean (SEM), read-out: size of zone inhibition (mm); for zone of inhibition at 5 µg/disc: Hyg A 5 μg per disc; for zone of inhibition at 10 µg/disc: Hyg A 10 μg per disc; for zone of inhibition at 20 µg/disc: Hyg A 20 μg per disc; for zone of inhibition at 40 µg/disc: Hyg A 40 μg per disc", "method": "as §1, §2, §3, §4, §5"}, "[4]": {"tested_on": "Treponema pallidum pallidum SS14 strain", "test": "Treated treponemes seeded onto no-antibiotic plate, 7 more days, T47 qPCR (treponemicidal activity)", "assay_type": "cell-based", "settings": "for Mean T47 copies/μL, Avg. / Mean T47 copies/μL, Expt. values: seeded on no antibiotic plate; for Mean T47 copies/μL, Avg.: average; for Mean T47 copies/μL, Expt. values: replicate wells"}, "[5]": {"tested_on": "Parvimonas micra (ATCC 33270)", "test": "MBC of Hyg A against P. micra", "assay_type": "cell-based", "settings": "for MBC: ATCC33270"}, "[6]": {"settings": "pre-treated with Hygromycin A 0.03 μg/ml"}, "[7]": {"settings": "pre-treated with Hygromycin A 0.06 μg/ml"}, "[8]": {"settings": "pre-treated with Hygromycin A 0.12 μg/ml"}, "[9]": {"settings": "pre-treated with Hygromycin A 0.24 μg/ml"}, "[10]": {"settings": "pre-treated with Hygromycin A 0.48 μg/ml"}, "[11]": {"settings": "pre-treated with Hygromycin A 0.96 μg/ml"}, "[12]": {"settings": "pre-treated with Hygromycin A 1.92 μg/ml"}, "[13]": {"settings": "pre-treated with Hygromycin A 3.84 μg/ml"}}, "note": "Values joined by “and” are separate entries in the source; they are usually repeats but may differ in a detail not shown here. Equal entries are not always repeated. Where two headings read alike, the source gives them in different places.", "data": [{"smiles": "CC(=O)[C@H]1O[C@@H](Oc2ccc(/C=C(\\C)C(=O)N[C@@H]3[C@H](O)[C@@H](O)[C@H]4OCO[C@H]4[C@@H]3O)cc2O)[C@@H](O)[C@@H]1O", "note": "[Hyg A, Hygromycin A]", "values": [{"measurement": "zone of inhibition at 40 µg/disc", "setting": "[1]", "result": 30, "unit": "mm"}, {"measurement": "zone of inhibition at 5 µg/disc", "setting": "[2]; strain 7_1", "result": 18.3, "unit": "mm"}, {"measurement": "zone of inhibition at 10 µg/disc", "setting": "[2]; strain 7_1", "result": 18, "unit": "mm"}, {"measurement": "zone of inhibition at 20 µg/disc", "setting": "[2]; strain 7_1", "result": 22.7, "unit": "mm"}, {"measurement": "zone of inhibition at 40 µg/disc", "setting": "[2]; strain 7_1", "result": 24.3, "unit": "mm"}, {"measurement": "zone of inhibition at 5 µg/disc", "setting": "[2]; strain 218A8", "result": 19.7, "unit": "mm"}, {"measurement": "zone of inhibition at 10 µg/disc", "setting": "[2]; strain 218A8", "result": 21.7, "unit": "mm"}, {"measurement": "zone of inhibition at 20 µg/disc", "setting": "[2]; strain 218A8", "result": 29.7, "unit": "mm"}, {"measurement": "zone of inhibition at 40 µg/disc", "setting": "[2]; strain 218A8, 42 mm = assigned maximum", "result": 42, "unit": "mm"}, {"measurement": "zone of inhibition at 5 µg/disc", "setting": "[2]; strain CRC 7_3 JVN3C1", "result": 0, "unit": "mm"}, {"measurement": "zone of inhibition at 10 µg/disc", "setting": "[2]; strain CRC 7_3 JVN3C1", "result": 0, "unit": "mm"}, {"measurement": "zone of inhibition at 20 µg/disc", "setting": "[2]; strain CRC 7_3 JVN3C1", "result": 0, "unit": "mm"}, {"measurement": "zone of inhibition at 40 µg/disc", "setting": "[2]; strain CRC 7_3 JVN3C1", "result": 0, "unit": "mm"}, {"measurement": "strain sensitivity in words", "setting": "[2]; strain CRC 7_3JVN3C1, 5-40 μg discs", "result": "fully resistant"}, {"measurement": "zone of inhibition at 5 µg/disc", "setting": "[3]; strain 3/1/36A2", "result": 19, "unit": "mm"}, {"measurement": "zone of inhibition at 10 µg/disc", "setting": "[3]; strain 3/1/36A2", "result": 21.3, "unit": "mm"}, {"measurement": "zone of inhibition at 20 µg/disc", "setting": "[3]; strain 3/1/36A2", "result": 24.7, "unit": "mm"}, {"measurement": "zone of inhibition at 40 µg/disc", "setting": "[3]; strain 3/1/36A2", "result": 27.7, "unit": "mm"}, {"measurement": "zone of inhibition at 5 µg/disc", "setting": "[3]; strain 215A9", "result": 0, "unit": "mm"}, {"measurement": "zone of inhibition at 10 µg/disc", "setting": "[3]; strain 215A9", "result": 0, "unit": "mm"}, {"measurement": "zone of inhibition at 20 µg/disc", "setting": "[3]; strain 215A9", "result": 0, "unit": "mm"}, {"measurement": "zone of inhibition at 40 µg/disc", "setting": "[3]; strain 215A9", "result": 0, "unit": "mm"}, {"measurement": "zone of inhibition at 5 µg/disc", "setting": "[3]; strain CC53", "result": 16.3, "unit": "mm"}, {"measurement": "zone of inhibition at 10 µg/disc", "setting": "[3]; strain CC53", "result": 21.3, "unit": "mm"}, {"measurement": "zone of inhibition at 20 µg/disc", "setting": "[3]; strain CC53", "result": 24, "unit": "mm"}, {"measurement": "zone of inhibition at 40 µg/disc", "setting": "[3]; strain CC53", "result": 27.3, "unit": "mm"}, {"measurement": "strain sensitivity in words", "setting": "[3]; strain 215A9, 5-40 μg discs", "result": "fully resistant"}, {"measurement": "concentration with treponemicidal activity", "setting": "[4]; SS14 strain seeded onto no-antibiotic control plate", "result": "≥ 0.12", "unit": "µg/mL"}, {"measurement": "Mean T47 copies/μL, Avg.", "setting": "[4]; [6]", "result": 2232, "unit": "copies/μL"}, {"measurement": "Mean T47 copies/μL, Expt. values", "setting": "[4]; [6]", "result": "1649 copies/μL and 3690 copies/μL and 3831 copies/μL and 2114 copies/μL and 445 copies/μL and 1541 copies/μL and 2079 copies/μL and 2511 copies/μL"}, {"measurement": "Mean T47 copies/μL, Avg.", "setting": "[4]; [7]", "result": 199, "unit": "copies/μL"}, {"measurement": "Mean T47 copies/μL, Expt. values", "setting": "[4]; [7]", "result": "137 copies/μL and 310 copies/μL and 274 copies/μL and 99 copies/μL and 71 copies/μL and 159 copies/μL and 200 copies/μL and 343 copies/μL"}, {"measurement": "Mean T47 copies/μL, Avg.", "setting": "[4]; [8]", "result": 20, "unit": "copies/μL"}, {"measurement": "Mean T47 copies/μL, Expt. values", "setting": "[4]; [8]", "result": "17 copies/μL and 14 copies/μL and 45 copies/μL and 0 copies/μL and 22 copies/μL and 25 copies/μL and 15 copies/μL and 24 copies/μL"}, {"measurement": "Mean T47 copies/μL, Avg.", "setting": "[4]; [9]", "result": 13, "unit": "copies/μL"}, {"measurement": "Mean T47 copies/μL, Expt. values", "setting": "[4]; [9]", "result": "35 copies/μL and 16 copies/μL (2×) and 6 copies/μL and 5 copies/μL and 21 copies/μL and 7 copies/μL and 0 copies/μL"}, {"measurement": "Mean T47 copies/μL, Avg.", "setting": "[4]; [10]", "result": 9, "unit": "copies/μL"}, {"measurement": "Mean T47 copies/μL, Expt. values", "setting": "[4]; [10]", "result": "2 copies/μL and 0 copies/μL (2×) and 16 copies/μL and 10 copies/μL and 31 copies/μL and 5 copies/μL and 6 copies/μL"}, {"measurement": "Mean T47 copies/μL, Avg.", "setting": "[4]; [11]", "result": 7, "unit": "copies/μL"}, {"measurement": "Mean T47 copies/μL, Expt. values", "setting": "[4]; [11]", "result": "8 copies/μL and 11 copies/μL and 0 copies/μL (2×) and 3 copies/μL (2×) and 16 copies/μL and 13 copies/μL"}, {"measurement": "Mean T47 copies/μL, Avg.", "setting": "[4]; [12]", "result": 13, "unit": "copies/μL"}, {"measurement": "Mean T47 copies/μL, Expt. values", "setting": "[4]; [12]", "result": "5 copies/μL (2×) and 7 copies/μL and 17 copies/μL and 19 copies/μL (2×) and 8 copies/μL and 22 copies/μL"}, {"measurement": "Mean T47 copies/μL, Avg.", "setting": "[4]; [13]", "result": 19, "unit": "copies/μL"}, {"measurement": "Mean T47 copies/μL, Expt. values", "setting": "[4]; [13]", "result": "19 copies/μL and 25 copies/μL and 21 copies/μL (2×) and 18 copies/μL and 7 copies/μL and 15 copies/μL and 22 copies/μL"}, {"measurement": "MBC", "setting": "[5]; Parvimonas micra ATCC 33270, read-out: MBC", "result": "> 10", "unit": "µg/mL"}, {"measurement": "type of effect (bactericidal/bacteriostatic)", "setting": "[5]; P. micra", "result": "bacteriostatic"}, {"measurement": "MIC:MBC ratio", "setting": "[5]; P. micra 33270", "result": ">0.2"}, {"measurement": "MBC", "setting": "[5]; Parvimonas micra, P. micra 33270, experiment 1, read-out: MBC (μg/ml) 1", "result": "> 10", "unit": "µg/mL"}, {"measurement": "MBC", "setting": "[5]; Parvimonas micra, P. micra 33270, experiment 2, read-out: MBC (μg/ml) 2", "result": "> 10", "unit": "µg/mL"}]}]}
